From PMC11013010, “Serendipitous Identification of Azine Anticancer Agents Using a Privileged Scaffold Morphing Strategy” (Molecules, 2024)
Values joined by “and” are separate entries in the source; they are usually repeats but may differ in a detail not shown here. Equal entries are not always repeated.

Assays:
[1] = Kinetic aqueous solubility; assay type: physicochemical; conditions: Milli-Q water, 25 °C, water, kinetic from dmso stock; Mill-Q H2O, 3 h, RT; LOD 0.1 µg/mL
Method: For the quantitative analysis, a UV/LC-MS system was used. LC analysis was performed through an Agilent 1260 Infinity HPLC-DAD system (Agilent Technologies, Palo Alto, CA, USA), which constituted of a vacuum solvent degassing unit, a binary high-pressure gradient pump, and a UV detector, that was connected to an Agilent MSD 6130 system (Agilent Technologies, Palo Alto, CA, USA). The Agilent 1260 series mass spectra detection (MSD) single-quadrupole instrument was equipped with the orthogonal spray API-ES (Agilent Technologies, Palo Alto, CA, USA). Nitrogen was used as a nebulizing and drying gas. Chromatographic separation was performed using a Phenomenex Kinetex EVO C18-100 Å (150 × 4.6 mm, 5 μm particle size) at 25 °C and a gradient elution with a binary solution; eluent A was H2O, while eluent B consisted of ACN (both eluents were acidified with FA 0.1% v/v). […] UV detection was monitored at 254 nm. Spectra were acquired over the scan range m/z 100–1500 in positive mode.
DMSO-stock compounds’ solutions were diluted with Mill-Q H2O to a final concentration of 200 μM. The percentage of DMSO never exceeded 2% v/v. Samples were incubated under gentle shaking at 25 °C (RT) conditions for 3 h. The suspensions were filtered using a 0.45 µm nylon filter (Acrodisc, VWR, Radnor, PE, USA), and the amount of solubilized compound was determined with the HPLC-UV-MS method reported above. The quantification of the solubilized compound was made with the appropriate calibration curve realized with stock solutions in DMSO (0.1–100 µg/mL). The limit of detection (LOD) was quantified at 0.1 µg/mL.

[2] = Cytotoxicity assay (CellTiter Glo) on colon epithelial carcinoma cells; conditions: human, Caco-2
[3] = system: Caco-2 cells; experiment: as above; conditions: for TSI Caco-2: ratio CC50 FB789 / CC50 Caco-2
[4] = Parallel artificial membrane permeability assay (PAMPA); assay type: in vitro ADME; conditions: GI, pH 7.4, 5 h, RT
Method: To evaluate the apparent permeability of tested compounds, a DMSO stock solution [1 mM] of each derivative was prepared and then diluted 1:1 v/v with phosphate buffer (PBS 25 mM, pH 7.4) in order to make the donor solutions. According to the protocol already published, the gastrointestinal (GI) phospholipidic bilayer was mimed through adding a 1% w/v dodecane solution of phosphatidylcholine (PC). The sandwich plates were assembled and incubated for 5 h at RT. At the end time point, the amount of compound passed through the phospholipid bilayer was measured using HPLC-UV/MS. Finally, apparent permeability (Papp) and membrane retention (MR%) were calculated as previously described.

[5] = Metabolic stability assay with human liver microsomes; assay type: in vitro ADME; conditions: 1 h, 37 °C, 50 µM
Method: A DMSO solution of selected compounds was incubated in the presence of phosphate buffer (25 mM, pH 7.4), human liver microsomal protein (200 µg/mL), and an NADPH regenerating system in MgCl2 (48 mM) at a final concentration of 50 µM. The metabolic reactions were conducted for 1 h under shaking at 37 °C and then stopped by adding cold acetonitrile (ACN). Centrifuging the mixtures at 5000 rpm, the supernatant was separated, dried under nitrogen flow, and finally suspended in methanol (MeOH). The amount of the parent drug and the metabolites were determined as previously described.

[6] = Cytotoxicity assay (CellTiter Glo) on normal fibroblasts; assay type: cell-based, human; conditions: human, FB789 normal fibroblast cells
Method: (§1) Cell-based assays were carried out on the normal human fibroblast FB789 cell line (kindly provided by Elena Dell’Ambra from IRCCS Istituto Dermopatico dell’Immacolata, Rome), on the Huh7 hepatocarcinoma cell line (kindly provided by Istituto Toscano Tumori, Core Research Laboratory, Siena, Italy), on the Caco-2 adenocarcinoma colorectal cell line (ATCC catalog. n. HTB-37), on the suspension H9 cell line (repository code ARP0001, NIBSC Centre for AIDS reagents) and on the adherent TZM-bl cell line (repository code ARP5011, NIBSC Centre for AIDS reagents).
The FB789 was cultured in Dulbecco’s Modified Eagle Medium (DMEM) and Ham’s F10 in a ratio of 50%, supplemented with 10% FBS, 2 mM L-glutamine, and 10,000 unit/mL penicillin/streptomycin.
(§2) The cytotoxicity of all investigated compounds was assayed in all cells lines as previously described. Briefly, confluent cells were treated with decreasing compound concentrations for 48h. The final DMSO concentration used was never greater than 0.5% v/v. Each experiment was performed in duplicate and repeated in two independent experiments. Cell viability was calculated using the CellTiter Glo 2.0 kit (Promega, Madison, WI, USA) and luminescence values signal obtained from cells treated with serial dilution of the compounds were measured through the GloMax® Discover Multi mode Microplate Reader (Promega) and elaborated with GraphPad PRISM software version 9.0 (La Jolla, San Diego, CA, USA). […] A non-toxic dose of each compound was used as the starting concentration in the antiviral activity assay.

[7] = Cytotoxicity assay (CellTiter Glo) on lymphoma cells; conditions: human
[8] = system: H9 cells; experiment: as above; conditions: ratio CC50 FB789 / CC50 H9
[9] = Plasma stability assay; assay type: in vitro ADME; conditions: human plasma, 24 h, 37 °C; % of Time 0
Method: A DMSO solution of each compound was incubated at a final concentration of 100 µM at 37 °C under shaking with HEPES buffer (25 mM, 140 mM NaCl, pH 7.4) and human plasma. At time 0 and after 24 h, samples were collected from the reaction mixtures and treated with cold ACN. After centrifugation at 5000 rpm for 10 min, the supernatant was collected, and the amount of unmodified compound was determined using the HLPC-UV/MS method described above. Modified compounds were calculated using time zero as 100% of the unmodified compound.

[10] = Cytotoxicity assay (CellTiter Glo) on hepatocarcinoma cells; assay type: cell-based; conditions: human, Huh7 hepatocarcinoma cells, Huh7 hepatocarcinoma
Method: as §1
(§3) High glucose Dulbecco’s Modified Eagle Medium with sodium pyruvate and L-glutamine (DMEM; Euroclone) was used to grow Huh-7 and TZM-bl. Minimum Essential Eagle Medium (EMEM; Euroclone) was used to propagate Caco-2. DMEM and EMEM were supplemented with 10% fetal bovine serum (FBS; Euroclone) and 1% penicillin/streptomycin (Pen/Strep, Euroclone). The growth medium with a lower concentration of FBS (1%) was used for viral propagation, cytotoxic and antiviral experiments in adherent cell lines. […] All cell lines were grown at 37 °C in a 5% CO2 atmosphere in a humidified incubator.
as §2

[11] = system: Huh7 cells; experiment: as above; assay type: cell-based; conditions: for TSI Huh7: ratio CC50 FB789 / CC50 Huh7
Method: as §1, §3, §2

[12] = 21a vs triazine 4, 33b vs triazine 6
[13] = pyrimidines and pyridines, read out at 48 h, mean ± SD
[14] = triazines 1-9, read-out 48 h, Cell-Titer Glo

With Oc1ccccc1/C=N/Nc1cc(Nc2ccc(F)cc2)nc(N2CCOCC2)n1 [Compound 21a] the solubility kinetic at 3 h [1] was under 0.1 µg/mL, the CC50 at 48 h [2] was 2 ± 0.4 µM and the “fold higher TSI than reference triazine, Caco-2” value [3, 12] was 1.4 fold. The “TSI Caco-2” value ([3]; pyrimidines and pyridines) was 5.0, the “MR (membrane retention)” value [4] was 26.03 ± 6.17% and the Papp at 5 h, 0.5 mM [4] was 4.8 ± 0.73 ×10⁻⁶ cm/s. The “Metabolic Stability” value [5] was over 99.9%, the CC50 at 48 h [6, 13] was 10 ± 5 µM and the CC50 at 48 h [7] was 11 ± 2 µM. For the same compound, the “TSI H9” value ([8]; pyrimidines and pyridines) was “no selectivity”, the “Plasmatic Stability” value [9] was 96.93 ± 2.73% and the CC50 at 48 h [10, 13] was 3 ± 1 µM. For the same compound, the “fold higher TSI than reference triazine, Huh7” value [11, 12] was 2.8 fold and the “TSI Huh7” value ([11]; pyrimidines and pyridines) was 3.3.

Cc1cccc(/C=N/Nc2nc(Nc3ccc(F)cc3)nc(Nc3ccc(F)cc3)n2)c1 [Compound 9] gave a CC50 at 48 h [2] of 200 µM, a CC50 at 48 h [6, 14] of 50 ± 5 µM and a CC50 at 48 h [7] of over 100 µM. For the same compound, the CC50 at 48 h ([10]; triazines 1-9, read-out 48 h) was over 200 µM.

Compound Oc1ccccc1/C=N/Nc1cc(N2CCOCC2)nc(N2CCOCC2)n1 [Compound 14a] has a CC50 at 48 h [2] of 84 ± 7 µM, a CC50 at 48 h [6, 13] of 30 ± 6 µM and a CC50 at 48 h [7] of over 100 µM. It also gave a CC50 at 48 h [10, 13] of 82 ± 6 µM.

In the case of CC(=O)Nc1ccc(/C=N/Nc2nc(N3CCOCC3)nc(N3CCOCC3)n2)cc1 [Compound 2], the CC50 at 48 h [2] is reported as over 200 µM, the “TSI Caco-2” value ([3]; triazines 1-9) is reported as under 0.7 and the CC50 at 48 h [6, 14] is reported as 134 ± 11 µM. The CC50 at 48 h [7] was over 100 µM, the “TSI H9” value ([8]; triazines 1-9) was under 1.3 and the CC50 at 48 h ([10]; triazines 1-9, read-out 48 h) was over 200 µM. For the same compound, the “TSI Huh7” value ([11]; triazines 1-9) was under 0.7.

With Cc1cccc(/C=N/Nc2cc(Nc3ccc(F)cc3)nc(Nc3ccc(F)cc3)n2)c1 [Compound 19b] the solubility kinetic at 3 h [1] was under 0.1 µg/mL, the CC50 at 48 h [2] was 4 ± 1 µM and the “TSI Caco-2” value ([3]; pyrimidines and pyridines) was 15.3. For the same compound, the “MR (membrane retention)” value [4] was 27.42% and 27.42 ± 1.22%, the Papp at 5 h, 0.5 mM [4] was 5.64 ± 0.59 ×10⁻⁶ cm/s and the “Metabolic Stability” value [5] was 98.31 ± 0.11%. The CC50 at 48 h [6, 13] was 61 ± 9 µM, the CC50 at 48 h [7] was 48 ± 3.5 µM and the “TSI H9” value ([8]; pyrimidines and pyridines) was 1.3. For the same compound, the “Plasmatic Stability” value [9] was over 99.9%, the CC50 at 48 h [10, 13] was 6 ± 1 µM and the “TSI Huh7” value ([11]; pyrimidines and pyridines) was 10.2.

In the case of Oc1ccccc1/C=N/Nc1nc(Nc2ccc(F)cc2)nc(Nc2ccc(F)cc2)n1 [Compound 7], the CC50 at 48 h [2] is reported as 0.8 ± 0.1 µM, the “TSI Caco-2” value ([3]; triazines 1-9) is reported as 8.8 and the CC50 at 48 h [6, 14] is reported as 7 ± 2 µM. The CC50 at 48 h [7] was 2 ± 1 µM, the “TSI H9” value ([8]; triazines 1-9) was 3.5 and the CC50 at 48 h ([10]; triazines 1-9, read-out 48 h) was 2 ± 0.4 µM. The “TSI Huh7” value ([11]; triazines 1-9) was 3.5.

In the case of Cc1cccc(/C=N/Nc2nc(N3CCOCC3)nc(N3CCOCC3)n2)c1 [Compound 3], the CC50 at 48 h [2] is reported as 184 ± 11 µM, the “TSI Caco-2” value ([3]; triazines 1-9) is reported as 1.4 and the CC50 at 48 h [6, 14] is reported as 250 ± 10 µM. For the same compound, the CC50 at 48 h [7] was 74 ± 6.2 µM, the “TSI H9” value ([8]; triazines 1-9) was 3.4 and the CC50 at 48 h ([10]; triazines 1-9, read-out 48 h) was 45 ± 10 µM. For the same compound, the “TSI Huh7” value ([11]; triazines 1-9) was 5.6.

In the case of Oc1ccccc1/C=N/Nc1cc(Nc2ccc(F)cc2)nc(N2CCOCC2)c1 [Compound 38a], the CC50 at 48 h [2] is reported as 19 ± 0.1 µM, the “TSI Caco-2” value ([3]; pyrimidines and pyridines) is reported as 0.2 and the CC50 at 48 h [6, 13] is reported as 3 ± 1 µM. For the same compound, the CC50 at 48 h [7] was 37 ± 2 µM, the “TSI H9” value ([8]; pyrimidines and pyridines) was 0.1 and the CC50 at 48 h [10, 13] was 24 ± 14 µM. For the same compound, the “TSI Huh7” value ([11]; pyrimidines and pyridines) was 0.1.

In the case of Cc1cccc(/C=N/Nc2cc(Nc3ccc(F)cc3)nc(N3CCOCC3)n2)c1 [Compound 21b], the CC50 at 48 h [2] is reported as 113 ± 4 µM, the “TSI Caco-2” value ([3]; pyrimidines and pyridines) is reported as 0.8 and the CC50 at 48 h [6, 13] is reported as 95 ± 1 µM. For the same compound, the CC50 at 48 h [7] was over 100 µM, the “TSI H9” value ([8]; pyrimidines and pyridines) was under 1.0 and the CC50 at 48 h [10, 13] was 67 ± 23 µM.
